Test results from patent US20120164117A1, “METHODS OF GENERATING HUMAN CARDIAC CELLS AND TISSUES AND USES THEREOF” (TECHNION RESEARCH & DEVELOPMENT FOUNDATION LTD., priority 2001, published 2012).
Like-named read-outs stand apart in the source and are kept apart here.

Assays:
[1] = system: human embryonic stem cell-derived cardiomyocytic cells (contracting embryoid bodies); experiment: Chronotropic responses of contracting embryoid bodies, multielectrode array extracellular recordings; format: cell-based; conditions: for spontaneous contraction rate, % of baseline (initial) value: drug at 10^−6 M (1 μM)
Text: Multielectrode array (MEA) extracellular electrophysiology mapping and pharmacological studies: Intact contracting areas within the embryoid bodies were mechanically dissected using a pulled-glass micropipette and plated on gelatin-coated multielectrode arrays (Multi Channel Systems MCS GmbH, Reutlingen, Germany; Igelmund, P. et al., 1999. Pflugers Arch. 437: 669). The microelectrode array consists of 60 titanium nitride electrodes with gold contacts 30 μm in diameter with an interelectrode distance of 100-200 μm. The contracting areas were plated on top of the microelectrode arrays and cells were grown to confluence over the electrodes. […] Extracellular signals were recorded simultaneously from all 60 electrodes at 25 kHz and band-pass filtered from 1 to 3000 Hz. Recordings were performed in culture medium at 37° C. A pH of 7.4 was maintained using perfusion with an atmosphere containing 5% CO2 and 95% air. Chronotropic responses were assessed by extracellular recordings for 10 minutes prior to and following […], 1 μM carbamylcholine, 10 μM 3-isobutyl-1-methylxanthine (IBMX), or 1 μM forskolin (all from Sigma). Statistical analysis: Data are expressed as mean ±standard deviation. In order to assess possible chronotropic effects, the average spontaneous beating rate was compared prior to and following drug application using two-tailed paired Student's t test.

[2] = system: hybrid rat ventricular myocyte-human embryonic stem cell-derived cardiomyocyte co-cultures; experiment: Electrical coupling in hybrid human ES cell-derived cardiomyocyte / neonatal rat ventricular myocyte co-cultures on microelectrode array; format: cell-based
Method: Performed as described above in Example 2 of the Examples section. Primary monolayer cultures of neonatal rat (Sprague Dawley) ventricular myocytes were prepared as previously described (Fast V G. and Kleber A G., 1993. Circ Res. 73:914). Briefly, following excision, the ventricles were minced and treated with RDB (IIBR, Ness-Ziona, Israel). Dispersed cells were then cultured on gelatin coated (0.1%) microelectrode array plates or on glass cover slips at a density of 1.5×10^6 cells/ml. […] Pacing studies in co-cultures were performed by electrically stimulating the human or rat tissues with one of the electrodes of the multielectrode array. The degree of electrical coupling between the two tissue types was also assessed during long term recordings and during adrenergic stimulation and partial gap junction uncoupling. The cycle-lengths of the electrical activity in the ES cell-derived cardiomyocytes and in the rat tissue were measured and a histogram depicting the ratio between these two cycle-lengths during long-term recordings is shown in FIG. 16i.

[3] = system: swine model of complete atrioventricular block; experiment: Swine complete atrioventricular block model transplanted with human ES cell-derived cardiomyocytic cells, rate of new ventricular rhythm; format: in vivo; conditions: following isoproterenol (20 μM); rate before 68±4 beats/minute
[4] = system: human embryonic stem cell-derived cardiomyocytic tissue (contracting embryoid bodies); experiment: Pharmacological analysis of conduction, multielectrode array activation mapping of embryoid bodies; format: cell-based; set-up: Global Velocity / Mean CV Vector: unit not given here; conditions: for total activation time: one embryoid body
[5] = system: human embryonic stem cell line H9.2 embryoid bodies; experiment: Cardiomyocyte differentiation efficiency, percentage of contracting embryoid bodies; format: cell-based
Text: Generation of human embryonic stem cell-derived cardiomyocytic cells: Ten different human embryonic stem cell lines including line H9 or its single cell clonal derivative H9.2 (Amit, M. et al., 2000. Dev. Biol. 227: 271) were individually grown on a mitotically inactivated (mitomycin C) mouse embryonic fibroblast feeder cell layer in culture medium, as previously described (Thomson, J. A. et al., 1998. Science 282: 1145). The culture medium consisted of 80% knockout DMEM (no-pyruvate, high-glucose formulation; Life Technologies, Inc., Rockville, Md., USA.) supplemented with 20% FBS (HyClone, Logan, Utah, USA.), 1 mM L-glutamine, 0.1 mM mercaptoethanol, and 1% nonessential amino acid stock (all from GIBCO-BRL). To induce differentiation, embryonic stem cells were dispersed into small clumps (3-20 cells) using collagenase IV (Life Technologies, Inc., 1 mg/ml for 20 minutes). […] The percentage of embryoid bodies displaying contracting areas, as well as the distribution of the timing of onset of spontaneous beating were evaluated. […] In addition, the effect of DMSO, a known stimulant of differentiation into cardiomyocytic lineage was assessed by adding dimethyl sulfoxide (Sigma Chemical Co., St. Louis, Mo., USA.) at a concentration of 0.75% (vol/vol) to the culture medium during the 10 days of growth in suspension. […]

[6] = extracellular potassium 10 mM, n=7
[7] = extracellular potassium 15 mM, n=7
[8] = extracellular potassium 20 mM, n=7

SMILES: CC(C)NCC(O)c1ccc(O)c(O)c1 (centres unmarked) [Isoproterenol, isoproterenol]
- chronotropic response of contracting embryoid bodies ([1]; 10 μM isoproterenol): positive chronotropic responses
- spontaneous contraction rate, % of baseline (initial) value ([1]; mean ± SD): 146±43%
- electrical coupling between the two cell types ([2]; isoproterenol 10 μM): not hindered
- spontaneous beating rate ([2]; isoproterenol 10 μM, base line 1.6±0.6 Hz, p<0.05): 1.9±0.8 Hz
- heart rate of the new ventricular rhythm [3]: 105±10 beats/minute

SMILES: CC(C)Cn1c(=O)n(C)c(=O)c2[nH]cnc21 [IBMX, 3-isobutyl-1-methylxanthine]
- spontaneous contraction rate, % of initial value ([1]; 10 μM IBMX, n=6, mean ± SD): 152±77%

SMILES: C=C[C@@]1(C)CC(=O)[C@]2(O)[C@@]3(C)[C@@H](O)CCC(C)(C)[C@@H]3[C@H](O)[C@H](OC(C)=O)[C@@]2(C)O1 [forskolin]
- spontaneous contraction rate, % of baseline (initial) value ([1]; mean ± SD): 182±48%

SMILES: [K+] [Potassium]
- Global Velocity [4, 6]: 1.6 ± 0.6
- Maximal − dv/dt [4, 6]: 2.7 ± 5.5 mV/sec
- Mean CV Vector [4, 6]: 3.5 ± 4.2
- total activation time ([4]; extracellular potassium 10 mM, baseline 25 milliseconds): 40 milliseconds
- Global Velocity [4, 7]: 1.0 ± 0.3
- Maximal − dv/dt [4, 7]: 1.1 ± 1.4 mV/sec
- Mean CV Vector [4, 7]: 2.0 ± 2.3
- total activation time ([4]; extracellular potassium 15 mM, baseline 25 milliseconds): 70 milliseconds
- Global Velocity [4, 8]: 1.0 ± 0.4
- Maximal − dv/dt [4, 8]: 1.1 ± 1.2 mV/sec
- Mean CV Vector [4, 8]: 1.5 ± 1
- total activation time ([4]; extracellular potassium 20 mM, baseline 25 milliseconds): 120 milliseconds

SMILES: NC1=N[C@H](O)[C@H]2[C@H]3O[C@]4(O)O[C@@H]([C@@H](O)[C@@]2(N1)[C@@H]4O)[C@]3(O)CO [TTX, tetrodotoxin]
- Global Velocity [4]: 1.8 ± 0.9
- Maximal − dv/dt [4]: 1.9 ± 1.9 mV/sec
- Mean CV Vector [4]: 3.2 ± 3
- total microelectrode array activation time [4]: 35 milliseconds

SMILES: CN1[C@@H]2CC[C@H]1C[C@@H](OC(=O)C(CO)c1ccccc1)C2 (some centres unmarked) [atropine]
- effect on carbamylcholine-induced decrease of spontaneous contraction rate [1]: reversed

SMILES: COc1ccc([C@@H]2Sc3ccccc3N(CCN(C)C)C(=O)[C@@H]2OC(C)=O)cc1.Cl [Diltiazem, diltiazem hydrochloride]
- Global Velocity [4]: 2.8 ± 2.0
- Maximal − dv/dt [4]: 2.5 ± 4.2 mV/sec
- Mean CV Vector [4]: 5.7 ± 4.2
- changes in the conduction parameters studied (global velocity, local velocity vector, −dV/dtmax) [4]: did not result in significant changes

SMILES: C[S+](C)[O-] [DMSO, dimethyl sulfoxide]
- increase of the percentage of embryoid bodies with cells displaying cardiac lineage differentiation ([5]; 0.75 percent (v/v) dimethyl sulfoxide): about 20%
- percentage of embryoid bodies demonstrating contracting areas ([5]; DMSO 0.75% (vol/vol) during suspension, 8.1% without): 10.1%

SMILES: CCCCCCCO [Heptanol, 1-Heptanol]
- total activation time ([4]; 1-heptanol 0.3 mM, baseline 15 milliseconds): 32 milliseconds
- effect of higher doses on beating ([4]; 1-heptanol 0.6 and 1 mM, n=8): complete cessation of beating
- Global Velocity ([4]; heptanol 0.3 mM, n=7): 1.7 ± 0.6
- Maximal − dv/dt ([4]; heptanol 0.3 mM, n=7): 2.0 ± 2.3 mV/sec
- Mean CV Vector ([4]; heptanol 0.3 mM, n=7): 3.0 ± 5.7
- Global Velocity ([4]; heptanol 0.6 mM): 1.2 ± 0.9
- Maximal − dv/dt ([4]; heptanol 0.6 mM): 2.1 ± 3.0 mV/sec
- Mean CV Vector ([4]; heptanol 0.6 mM): 3.0 ± 3.8
- Global Velocity ([4]; heptanol 1 mM): No conduction
- Maximal − dv/dt ([4]; heptanol 1 mM): No conduction
- Mean CV Vector ([4]; heptanol 1 mM): No conduction
- co-cultures in which tight coupling was not altered ([2]; 1-Heptanol 0.5 mM): 5 of the 8
- co-cultures with occasional episodes of 2:1 conduction block ([2]; 1-Heptanol 0.5 mM, 8 co-cultures studied): 3

SMILES: C[N+](C)(C)CCOC(N)=O.[Cl-] [carbamylcholine]
- spontaneous contraction rate, % of baseline (initial) value ([1]; mean ± SD): 78±20%
